# Source: ChEMBL document CHEMBL1144495, “Tri-, tetra- and heptacyclic perylene analogues as new potential antineoplastic agents based on DNA telomerase inhibition” (Bioorg Med Chem, 2007)
# pIC50: −log10 of the molar value. Active and inactive are the calls of the source. No cut-off for these calls is given here.
# Key:
# NCI-H460 = experiment: Cytotoxicity against human H460 cells by MTT assay; type: cell-based
# HT-29 = experiment: Cytotoxicity against human HT29 cells by MTT assay; type: cell-based
# [1] = molecular target: T1, Telomerase reverse transcriptase (Homo sapiens, UniProt O14746); experiment: Inhibition of telomerase in JR8 cell extract at 0 to 40 uM by TRAP assay; type: cell-free
# T1 sequence (O14746 whole entry): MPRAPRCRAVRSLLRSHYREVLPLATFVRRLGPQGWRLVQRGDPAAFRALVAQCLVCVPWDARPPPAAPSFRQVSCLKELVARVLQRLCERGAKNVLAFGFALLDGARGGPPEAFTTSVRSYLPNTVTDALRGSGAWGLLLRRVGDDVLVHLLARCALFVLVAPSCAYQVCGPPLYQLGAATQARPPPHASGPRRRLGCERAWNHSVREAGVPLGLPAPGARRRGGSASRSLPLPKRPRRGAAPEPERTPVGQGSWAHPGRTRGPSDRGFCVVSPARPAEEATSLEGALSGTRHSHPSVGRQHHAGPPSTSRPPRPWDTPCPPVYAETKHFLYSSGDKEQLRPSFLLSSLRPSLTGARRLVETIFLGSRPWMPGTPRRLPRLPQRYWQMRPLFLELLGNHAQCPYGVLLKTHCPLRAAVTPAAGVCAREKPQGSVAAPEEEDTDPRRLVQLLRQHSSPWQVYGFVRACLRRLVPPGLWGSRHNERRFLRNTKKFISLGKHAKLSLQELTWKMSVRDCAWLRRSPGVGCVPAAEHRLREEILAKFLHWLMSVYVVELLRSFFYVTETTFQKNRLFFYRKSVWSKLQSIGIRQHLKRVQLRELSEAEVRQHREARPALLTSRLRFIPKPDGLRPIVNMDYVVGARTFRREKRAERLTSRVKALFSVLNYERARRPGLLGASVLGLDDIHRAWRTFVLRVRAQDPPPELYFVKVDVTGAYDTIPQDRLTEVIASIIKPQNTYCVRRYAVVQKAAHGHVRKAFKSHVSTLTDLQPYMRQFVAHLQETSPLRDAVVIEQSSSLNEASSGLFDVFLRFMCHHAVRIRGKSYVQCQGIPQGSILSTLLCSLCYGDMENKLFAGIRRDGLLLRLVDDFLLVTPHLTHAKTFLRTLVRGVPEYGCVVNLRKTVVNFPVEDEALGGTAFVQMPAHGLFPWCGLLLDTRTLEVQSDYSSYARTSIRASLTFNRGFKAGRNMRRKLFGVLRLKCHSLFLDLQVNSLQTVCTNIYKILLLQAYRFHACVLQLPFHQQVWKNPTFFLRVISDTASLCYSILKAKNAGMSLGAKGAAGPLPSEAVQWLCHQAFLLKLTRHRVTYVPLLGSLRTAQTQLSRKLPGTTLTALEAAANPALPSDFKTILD
# [2] = molecular target: DNA polymerase I, thermostable (Thermus aquaticus, UniProt P19821); experiment: Inhibition of Taq polymerase
# Chain of DNA polymerase I, thermostable (P19821 whole entry): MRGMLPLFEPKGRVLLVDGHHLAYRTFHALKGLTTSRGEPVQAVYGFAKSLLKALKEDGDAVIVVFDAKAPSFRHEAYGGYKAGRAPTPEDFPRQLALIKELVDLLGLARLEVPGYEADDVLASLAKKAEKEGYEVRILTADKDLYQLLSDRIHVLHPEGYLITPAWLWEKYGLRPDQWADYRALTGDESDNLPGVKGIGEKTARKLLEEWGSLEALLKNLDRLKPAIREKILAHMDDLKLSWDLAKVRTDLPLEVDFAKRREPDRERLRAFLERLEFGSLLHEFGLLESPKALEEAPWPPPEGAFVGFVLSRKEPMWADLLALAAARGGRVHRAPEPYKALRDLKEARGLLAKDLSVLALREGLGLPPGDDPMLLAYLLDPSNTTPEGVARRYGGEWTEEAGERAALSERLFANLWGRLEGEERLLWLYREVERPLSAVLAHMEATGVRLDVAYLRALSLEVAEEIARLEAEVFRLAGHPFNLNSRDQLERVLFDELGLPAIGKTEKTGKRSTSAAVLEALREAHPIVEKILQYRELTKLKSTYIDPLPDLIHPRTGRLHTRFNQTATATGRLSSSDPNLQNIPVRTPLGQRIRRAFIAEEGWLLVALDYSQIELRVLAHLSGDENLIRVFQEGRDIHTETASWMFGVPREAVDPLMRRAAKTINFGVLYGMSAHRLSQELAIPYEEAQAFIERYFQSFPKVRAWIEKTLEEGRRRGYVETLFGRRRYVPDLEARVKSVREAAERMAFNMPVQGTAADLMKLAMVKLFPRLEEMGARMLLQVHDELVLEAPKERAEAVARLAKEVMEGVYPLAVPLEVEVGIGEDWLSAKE
# [3] = molecular target: T1, Telomerase reverse transcriptase; experiment: Inhibition of telomerase in JR8 cell extract by TRAP assay; type: cell-free
# [4] = Selectivity index, ratio of IC50 for Taq polymerase to IC50 for telomerase
Activity [1],pIC50 [2],pIC50 [3],Selectivity index [4],Structure (SMILES),pIC50 (NCI-H460),pIC50 (HT-29)
inactive,5.24,–,–,O=C1c2ccc3c4c(ccc(c24)C(=O)N1CCNCCO)C(=O)N(CCNCCO)C3=O,5.03,4.93
–,5.30,5.60,2,C[N+](C)(C)CCN1C(=O)c2ccc3c4c(ccc(c24)C1=O)C(=O)N(CC[N+](C)(C)C)C3=O,5.66,5.49
inactive,4.66,–,–,C[N+](C)(C)CCN1C(=O)c2cccc3cccc(c23)C1=O,≤ 4.00,–
–,5.00,6.40,25,c1cc2c3ccc4c5c(ccc(c6ccc7c(c1CN(CCN1CCCCC1)C7)c26)c53)CN(CCN1CCCCC1)C4,4.55,5.27
–,5.30,5.60,2,C[N+](C)(C)CCCN1C(=O)c2ccc3c4c(ccc(c24)C1=O)C(=O)N(CCC[N+](C)(C)C)C3=O,5.94,5.05
–,6.70,7.22,2,O=C1c2ccc3c4ccc5c6c(ccc(c7ccc(c2c37)C(=O)N1CCNCCO)c64)C(=O)N(CCNCCO)C5=O,5.58,5.93
–,5.19,5.46,1.8,CN(C)CCCN1C(=O)c2ccc3c4c(ccc(c24)C1=O)C(=O)N(CCCN(C)C)C3=O,6.38,6.89
inactive,5.82,–,–,CN(C)CCN1C(=O)c2ccc3c4c(ccc(c24)C1=O)C(=O)N(CCN(C)C)C3=O,6.80,–
inactive,4.60,–,–,CN(C)CCN1Cc2ccc3c4c(ccc(c24)C1)CN(CCN(C)C)C3,≤ 4.00,4.82
inactive,< 4.40,–,–,CN(C)CCN1C(=O)c2cccc3cccc(c23)C1=O,5.47,5.30
inactive,< 4.40,–,–,CN1Cc2ccc3c4c(ccc(c24)C1)CN(C)C3,≤ 4.00,≤ 4.00
inactive,< 4.40,–,–,CN(C)CCN1Cc2cccc3cccc(c23)C1,≤ 4.00,≤ 4.00
–,6.82,7.52,4.2,C[N+](C)(C)CCN1C(=O)c2ccc3c4ccc5c6c(ccc(c7ccc(c2c37)C1=O)c64)C(=O)N(CC[N+](C)(C)C)C5=O,≤ 4.00,≤ 4.00

Structure (SMILES),Activity [1],pIC50 [2],pIC50 [3],Selectivity index [4],pIC50 (NCI-H460),pIC50 (HT-29)
O=C1c2ccc3c4ccc5c6c(ccc(c7ccc(c2c37)C(=O)N1CCN1CCCCC1)c64)C(=O)N(CCN1CCCCC1)C5=O,–,5.30,6.70,25,≤ 4.00,5.04
CN(C)CCN1C(=O)c2ccc3c4ccc5c6c(ccc(c7ccc(c2c37)C1=O)c64)C(=O)N(CCN(C)C)C5=O,–,6.05,6.80,5.6,5.64,6.64
